Consider two compounds from US20140364359A1, “COMPOSITIONS AND METHODS FOR TREATING CANCER AND INFLAMMATION-RELATED DIESEASES AND CONDITIONS” (priority 2012, published 2014).

For orientation: inhibition means the relative decrease from the control value, in per cent. Broadly, the LD50 is the dose expected to kill half of the subjects tested.

The structures appear in SMILES notation. Entries after “also recorded” stand apart in the source; their conditions may differ. Read-outs that look alike come from different tables or passages of the source.

In one series the test system is Primary tumor. The experiment in a line: Percent inhibition of growth relative to controls, primary tumor (Table 4). It counts as in vivo.
In a further series the test system is Metastases. Put plainly: Percent inhibition of growth relative to controls, metastases (Table 4). The class given is in vivo.
The subject of series [1] is SGC-7901 cells. The experiment in a line: Cell growth assay. To be noted: Homo sapiens, read-out: inhibition rate of cell growth. It counts as cell-based. As to the method: (§1) Human gastric adenocarcinoma cell line SGC-7901 which had been widely used for gastric cancer research was maintained in Hubei Key Laboratory of Tumor Biological Behaviors. Cells were cultured in RPMI-1640 medium supplemented with 10% standard newborn bovine serum in the 5% CO2, saturated humidity, 37° C. incubator (Shel Lab, OR, USA). The culture medium was changed every 2 days.
SGC-7901 cells at exponential growth phase were planted in 24-well culture plates (Corning, N.Y., USA) at a density of 1×10^5/well. After 48 h, cell numbers were determined by direct cell counting of 3 wells, which was designated as cell number of day 0 (D0). Then the cells were divided into 6 groups, treated with normal saline (100 μl), ADM (0.5 μg/ml), ADM (1.0 μg/ml), PADM (0.9 μg/ml), PADM (1.8 μg/ml), and PADM (3.6 μg/ml), respectively, 3 wells per group. Cells in each group were harvested and counted daily from D2 to D7. The cell growth curve was plotted.

Series [2] relates to SGC-7901 cells. Put plainly: Flow cytometric analysis of cell cycle. It counts as cell-based, Human. As to conditions: SGC-7901, 24 h, ADM 0.25 μg/ml, PADM 0.45 μg/ml. The procedure: as §1
To study the effect of PADM on cell cycle, flow cytometric analysis was performed. SGC-7901 cells were planted in 6-well culture plates (Corning, N.Y., USA), at a density of 2×10^6/well. After 48 h, the cells were divided into 3 groups and treated for 24 h with normal saline (25 μl), ADM (0.25 μg/ml), and PADM (0.45 μg/ml). The cells in each group were harvested to make single-cell suspension, centrifuged at 4° C.×1000 rpm for 10 min, washed twice with phosphate buffered saline (pH=7.4), fixed and stained with PI kit. Cell cycle analysis was performed by flow cytometry with FC 500 (Beckman Coulter, Calif., USA).

Series [3] relates to SGC-7901 peritoneal carcinomatosis. The experiment in a line: GC peritoneal carcinomatosis model, therapeutic study. It counts as in vivo, nude mice. To be noted: ADM 2.0 mg/kg; for lung metastasis / median (range) ePCI score: D40; for lung metastasis / relative ePCI reduction: PADM 7.2 mg/kg i.p x8; for median (range) ePCI score: i.p x8 (D8-D36), PADM 7.2 mg/kg; for relative ePCI reduction: compared with control.

For series [4] the following is noted: for peripheral blood parameters (RBC, lymphocytes) versus control: D16, D24, D32 tail vein blood; for liver and kidney function (ALT, AST, BUN, Cr) versus control: D40 serum, 4 major parameters; for body weight: ADM 2.0 mg/kg, PADM 7.2 mg/kg i.p x8 (FIG. 3).
Description: After 3 days of adaptation, the animals were used for in vivo study, and the protocols were approved by the Animal Care Committee of Wuhan University.
SGC-7901 cells (5×10^6/0.2 ml) were subcutaneously inoculated into the back of nude mice (n=4) as donor tumors, and cells (1×10^7/0.4 ml) were i.p inoculated into the peritoneal cavity of nude mice (n=2). After 50 days, tumor nodules and ascites were obtained and tumor tissue homogenate was re-suspended in ascites at a density of 1×10^7/ml (ascites were used as condition medium). These cell suspensions were injected i.p into 29 nude mice, 0.2 ml containing 5×10^6 cells for each animal, on day 0 (D0). On D8, all of the mice were randomized into 3 groups: control group (n=9), ADM group (n=10) and PADM group (n=10). […] D40 was set as the end point of this study. On D16, D24 and D32, 80 μl of blood was obtained from tail veins, anticoagulated by EDTA, and analyzed by Sysmex KX-21 automated hematology analyzer (Sysmex, Kobe, Japan). On D40, all mice were sacrificed, blood was obtained, coagulated and centrifugated at 4° C.×3000 rpm for 10 min to separate serum for biochemical analysis, including ALT (alanine aminotransferase), AST (aspartate aminotransferase), BUN (blood urea nitrogen), Cr (creatinine), CK (creatine kinase), CK-MB (creatine kinase-MB), LDH (lactate dehydrogenase) by Aeroset Clinical Chemistry Analyzer (Abbott Laboratories, IL, USA).
At autopsy, major organs including the heart, liver, kidneys, spleen and lungs were examined for any toxic changes. Any organs involved by the tumor and the tumor nodules were formalin-fixed, paraffin-embedded, and cut at 5-μm thickness, for histopathological study after hematoxylin and eosin (H&E) staining
For series [5] the following is noted: mice, cited from earlier work.
The next series deals with Cat B (Homo sapiens, UniProt P07858). To be noted: cited from earlier work.
For series [6] the following is noted: 37° C., over 6-7 h; cited from earlier work.
The nature of the next series: Pilot dosage study. To be noted: nude mice.
[7] abbreviates: Metastases to Mediastinal lymph nodes.

On to `COc1cccc2c1C(=O)c1c(O)c3c(c(O)c1C2=O)C[C@@](O)(C(=O)CO)C[C@@H]3O[C@H]1C[C@H](N)[C@H](O)[C@H](C)O1` [ADM, doxorubicin, reference compound], for which the “Percent inhibition of growth relative to controls” value in the series on Primary tumor was determined as 42%; in the series with Metastases (Metastases to Diaphragm), 19%; with Metastases (Metastases to Lung), 36%; in the series with Metastases (setting [7]), 9.1%; with Metastases (Metastases to Mesenteric) it was 9.1%; with Metastases (Metastases to Retroperitoneal), 65%. The inhibition at 0.5 µg/mL in the series on SGC-7901 cells [1] (SGC-7901, D7, 0.5 μg/ml) turned out to be 80.2%. For the same compound, the inhibition at 1 µg/mL with SGC-7901 cells [1] (SGC-7901, D7, 1.0 μg/ml) amounted to 96.3%. Moreover, the “effect on cell cycle / apoptosis” value in the series with SGC-7901 cells [2] is on record as “a prominent apoptosis peak was observed”. In addition, the lung metastasis result in series [3] was “no lung metastasis”. The “median (range) ePCI score” value in series [3] is 1.5 (0-6). Besides, in [3], the “relative ePCI reduction” value is 75%. In addition, the “peripheral blood parameters (RBC, lymphocytes) versus control” value in series [4] is “significantly lower RBC counts”. In addition, the “nude mice died due to severe toxicity” value in series [4] (D36, group n=10) was found to be 1. The “liver and kidney function (ALT, AST, BUN, Cr) versus control” value in series [4] is given as 3 out of the 4 parameters achieved statistical significance. In addition, the “animals with significant myocardium toxicities (histopathology)” value in [4] (male, BALB/c nude, mouse, in vivo) worked out at 7 animals. The “body weight course versus control” value in series [4] (nude mice PC model, whole study period to D40) is recorded as “significant decrease on D24”. This compound also registered a body weight in series [4] (nude mice PC model) of 18.40 ± 2.97 g. Also, the median lethal dose (LD50) in series [5] (given intraperitoneally (i.p)) is 13.2 mg/kg; in [5] (given intravenously), 12.0 mg/kg.
For the compound `COc1cccc2c1C(=O)c1c(O)c3c(c(O)c1C2=O)C[C@@](O)(C(=O)CO)C[C@@H]3O[C@H]1C[C@H](NC(=O)OCc2ccc(NC(=O)[C@H](CCCCN)NC(=O)[C@H](Cc3ccccc3)NC(C)=O)cc2)[C@H](O)[C@H](C)O1` [PADM, Ac-Phe-Lys-PABC-ADM], the “Ratio, PADM/Dox” value came to 1.05 in the series on Primary tumor; 2.3 in the series with Metastases (Metastases to Diaphragm); 1.9 in the series on Metastases (Metastases to Lung); 5.7 with Metastases (setting [7]); 3.8 in the series on Metastases (Metastases to Mesenteric); 1.2 with Metastases (Metastases to Retroperitoneal). The “effect on cell cycle / apoptosis” value in the series on SGC-7901 cells [2] was “did not show significant apoptosis”. For the same compound, the lung metastasis result in series [3] is “no lung metastasis”. Moreover, the “median (range) ePCI score” value in [3] is reported as 1 (1-4). Besides, in [3], the “relative ePCI reduction” value is on record as 83.3%. Besides, in the series with Cat B, the “cleavage in Cat B-rich medium” value was “rapidly cleaved”. Moreover, the “peripheral blood parameters (RBC, lymphocytes) versus control” value in [4] is on record as “no differences”. Moreover, the “animals with significant myocardium toxicities (histopathology)” value in [4] (D40, group n=10) was 4 animals. The “liver and kidney function (ALT, AST, BUN, Cr) versus control” value in [4] is on record as “only ALT levels achieved statistical significance”. In addition, the body weight in [4] (nude mice PC model) turned out to be 23.61 ± 0.80 g. For the same compound, in series [6], the “changes in human plasma (stability)” value is “no changes were observed; also recorded: stable in human plasma”. Also, the “histopathological study of major organs” value in “Pilot dosage study” (after 4 administrations) is listed as “No obvious damages”. Also, the body weight changes result is recorded as “persistent body weight decreases” in the series “Pilot dosage study” (after the fourth administration, total 96.0 mg/kg group A, 144.0 mg/kg group B); “no obvious changes in body weight” in “Pilot dosage study” (i.p, first 3 injections, groups A and B). Also, in the series “Pilot dosage study” (total dosage), the “ceiling dosage set for formal in vivo test” value was “below 96.0 mg/kg”.
